ChEMBL document CHEMBL3526037, “Evaluation of the relationship between sex, polymorphisms in CYP2C8 and CYP2C9, and pharmacokinetics of angiotensin receptor blockers” (Drug Metab Dispos, 2013)

Columns and labels:
[1] = Tmax in human plasma expressing CYP2C9*2 allele carrier polymorphism at 50 mg by LC/MS/MS analysis; type: ADME, organism-based
[2] = Tmax in human plasma expressing CYP2C8*4 allele carrier polymorphism at 50 mg by LC/MS/MS analysis; type: ADME, organism-based
[3] = Cmax in human plasma expressing CYP2C8*4 allele carrier polymorphism at 50 mg by LC/MS/MS analysis; type: ADME, organism-based; parameters: dose 50 mg
[4] = Half life in human plasma expressing CYP2C8*3 allele carrier polymorphism at 50 mg by LC/MS/MS analysis
[5] = Half life in human plasma expressing CYP2C9*3 allele carrier polymorphism at 50 mg by LC/MS/MS analysis
[6] = Clearance in human plasma expressing CYP2C9*2 allele carrier polymorphism at 50 mg by LC/MS/MS analysis; type: ADME, organism-based
[7] = Cmax in human plasma expressing CYP2C8*3 allele carrier polymorphism at 50 mg by LC/MS/MS analysis; type: ADME, organism-based; parameters: dose 50 mg
[8] = AUC in women plasma at 50 mg by LC/MS/MS analysis; type: ADME, organism-based; conditions: female, human
[9] = Tmax in human plasma expressing CYP2C8*3 allele carrier polymorphism at 50 mg by LC/MS/MS analysis; type: ADME, organism-based
[10] = Tmax in men plasma at 50 mg by LC/MS/MS analysis; type: ADME, organism-based; conditions: male, human
[11] = AUC in human plasma expressing CYP2C8*3 allele carrier polymorphism at 50 mg by LC/MS/MS analysis; type: ADME, organism-based
[12] = Clearance in human plasma expressing CYP2C9*1/*1 polymorphism at 50 mg by LC/MS/MS analysis; type: ADME, organism-based
[13] = Half life in human plasma expressing CYP2C9*1/*1 polymorphism at 50 mg by LC/MS/MS analysis
[14] = AUC in human plasma expressing CYP2C8*4 allele carrier polymorphism at 50 mg by LC/MS/MS analysis; type: ADME, organism-based
[15] = Clearance in human plasma expressing CYP2C8*4 allele carrier polymorphism at 50 mg by LC/MS/MS analysis; type: ADME, organism-based
[16] = Clearance in human plasma expressing CYP2C8*3 allele carrier polymorphism at 50 mg by LC/MS/MS analysis; type: ADME, organism-based
[17] = Clearance in human plasma expressing CYP2C8*1/*1 polymorphism at 50 mg by LC/MS/MS analysis; type: ADME, organism-based
[18] = Cmax in human plasma expressing CYP2C9*1/*1 polymorphism at 50 mg by LC/MS/MS analysis; type: ADME, organism-based; parameters: dose 50 mg
[19] = Half life in human plasma expressing CYP2C9*2 allele carrier polymorphism at 50 mg by LC/MS/MS analysis
[20] = Half life in men plasma at 50 mg by LC/MS/MS analysis; conditions: male, human
[21] = Half life in women plasma at 50 mg by LC/MS/MS analysis; conditions: female, human
[22] = Tmax in women plasma at 50 mg by LC/MS/MS analysis; type: ADME, organism-based; conditions: female, human
[23] = Clearance in human plasma expressing CYP2C9*3 allele carrier polymorphism at 50 mg by LC/MS/MS analysis; type: ADME, organism-based
[24] = Half life in human plasma expressing CYP2C8*1/*1 polymorphism at 50 mg by LC/MS/MS analysis
[25] = Clearance in women plasma at 50 mg by LC/MS/MS analysis; type: ADME, organism-based; conditions: female, human
[26] = Cmax in human plasma expressing CYP2C8*1/*1 polymorphism at 50 mg by LC/MS/MS analysis; type: ADME, organism-based; parameters: dose 50 mg
[27] = Clearance in men plasma at 50 mg by LC/MS/MS analysis; type: ADME, organism-based; conditions: male, human
[28] = AUC in human plasma expressing CYP2C8*1/*1 polymorphism at 50 mg by LC/MS/MS analysis; type: ADME, organism-based
[29] = AUC in human plasma expressing CYP2C9*3 allele carrier polymorphism at 50 mg by LC/MS/MS analysis; type: ADME, organism-based
[30] = Cmax in men plasma at 50 mg by LC/MS/MS analysis; type: ADME, organism-based; parameters: dose 50 mg; conditions: male, human
[31] = Half life in human plasma expressing CYP2C8*4 allele carrier polymorphism at 50 mg by LC/MS/MS analysis
[32] = AUC in human plasma expressing CYP2C9*1/*1 polymorphism at 50 mg by LC/MS/MS analysis; type: ADME, organism-based
[33] = Tmax in human plasma expressing CYP2C8*1/*1 polymorphism at 50 mg by LC/MS/MS analysis; type: ADME, organism-based
[34] = Tmax in human plasma expressing CYP2C9*1/*1 polymorphism at 50 mg by LC/MS/MS analysis; type: ADME, organism-based
[35] = Tmax in human plasma expressing CYP2C9*3 allele carrier polymorphism at 50 mg by LC/MS/MS analysis; type: ADME, organism-based
[36] = AUC in human plasma expressing CYP2C9*2 allele carrier polymorphism at 50 mg by LC/MS/MS analysis; type: ADME, organism-based
[37] = AUC in men plasma at 50 mg by LC/MS/MS analysis; type: ADME, organism-based; conditions: male, human

Which results are given for CCCCc1nc(Cl)c(CO)n1Cc1ccc(-c2ccccc2-c2nn[nH]n2)cc1 [LOSARTAN]?
Tmax [1]: 1.1 h; Tmax [2]: 0.9 h; Cmax [3]: 345 ng/mL; half-life [4]: 2.5 h; half-life [5]: 3.1 h; clearance [6]: 31.7 mL/min/kg; Cmax [7]: 231 ng/mL; AUC [8]: 519 ng·h/mL; Tmax [9]: 1 h; Tmax [10]: 1.2 h; AUC [11]: 413 ng·h/mL; clearance [12]: 30 mL/min/kg; half-life [13]: 2.3 h; AUC [14]: 494 ng·h/mL; clearance [15]: 26.7 mL/min/kg; clearance [16]: 31.7 mL/min/kg; clearance [17]: 28.3 mL/min/kg; Cmax [18]: 258 ng/mL; half-life [19]: 2.4 h; half-life [20]: 2.5 h; half-life [21]: 2.4 h; Tmax [22]: 1.2 h; clearance [23]: 21.7 mL/min/kg; half-life [24]: 2.3 h; clearance [25]: 30.3 mL/min/kg; Cmax [26]: 263 ng/mL; clearance [27]: 27.7 mL/min/kg; AUC [28]: 504 ng·h/mL; AUC [29]: 637 ng·h/mL; Cmax [30]: 234 ng/mL; half-life [31]: 2.7 h; AUC [32]: 473 ng·h/mL; Tmax [33]: 1.3 h; Tmax [34]: 1.3 h; Tmax [35]: 1 h; AUC [36]: 366 ng·h/mL; AUC [37]: 455 ng·h/mL
